In patent US20140366440A1, “METHOD FOR PRODUCING CLONE SEEDLINGS” (OKAYAMA PREFECTURE, priority 2009, published 2014):

Experiments:
E. uro-grandis B = test: Rooting of cuttings, oxidized glutathione solution sprayed to phylloplane; assay type: in vivo, crossbreed of eucalyptus urophylla and eucalyptus grandis; settings: for Rooting rate (%): 88 test pieces; for Number of rooted shoots: of 88 test pieces
Protocol: Oxidized glutathione was applied to a phylloplane of a cutting. That is, the cutting was prepared in the same way as that in Example 5, except that a mother tree of the cutting was E. uro-grandis (Line name: B). Then a base of the cutting was planted to the supporter similar to Example 5. An oxidized glutathione solution was prepared in the same way as Example 5, and, immediately after the base was planted, the oxidized glutathione solution was sprayed to the phylloplane in the form of a mist by use of a spray etc. A spray amount of the glutathione solution was set to about 1.1 ml per shoot. A breeding condition after planting the shoot was similar to Example 5, and a rooting rate was calculated in the same way as Example 5.
A seedling was bred in the same way as Example 8, except that a solution having an oxidized glutathione concentration of 500 mg/L was used as the oxidized glutathione solution.
A seedling was bred in the same way as Example 8, except that a solution having an oxidized glutathione concentration of 1000 mg/L was used as the oxidized glutathione solution.

[1] = system: Mango (Mangifera Indica Linn. variety name: Irwin); test: Rooting of mango cuttings in rooting medium containing oxidized glutathione; assay type: in vivo; settings: one and half months
Source text: A mango (Mangifera Indica Linn. variety name: Irwin) was used as a material of a cutting. Specifically, a cutting including one to three joints and one to five leaves was cut from a branch of a mother tree, and each leaf was partially cut off. Furthermore, the material was wounded by a cutter. The cutting was thus prepared.
The shoot thus obtained was washed with running water over night, and was dipped into an insecticide solution such as “Kotetsu”. Then the shoot had been planted to a supporter infiltrated with a four-diluted MS medium (Composition: ammonium nitrate of 412.5 mg/L, potassium nitrate of 475 mg/L, sodium dihydrogenphosphate of 42.52 mg/L, potassium iodide of 0.21 mg/L, etc. Note that a carbon source other than glutathione was not added to this medium.) to which the oxidized glutathione of 50 mg/L, STS (AgS4O6) of 5 μM serving as a silver ion source, ascorbic acid of 50 mg/L serving an antioxidant, and IBA of 10 mg/L serving as a plant hormone were added. In this case, natural soil such as sand and akadama soil; or a composite soil of vermiculite, perlite, peat moss, etc. was used as the supporter. […]
Ten to twenty shoots were planted per culture container. A rooting rate was calculated from the number of test pieces of the shoot and the number of shoots (the number of rooted shoots) which had been rooted after the foliage was cultured for one and half months.

Tea plant = test: Rooting of tea plant cuttings, granule oxidized glutathione mixed with composite soil; assay type: in vivo; settings: mix with soil; for Rooting rate (%): 462 test pieces; for Number of rooted shoots: of 462 test pieces
Protocol: Oxidized glutathione was prepared in such a way that 1% granule oxidized glutathione was mixed with a composite soil was used. Specifically, 1% granule oxidized glutathione of 15 g was mixed with a composite soil of peat moss and vermiculite (5.5 L), and was then put into a seedling pot (3 cm in inner diameter×15 cm in height×66 holes). This seedling pot served as a supporter. A four-diluted MS medium (Composition: ammonium nitrate of 412.5 mg/L, potassium nitrate of 475 mg/L, sodium dihydrogenphosphate of 42.52 mg/L, and potassium iodide of 0.21 mg/L. Note that a carbon source was not added to this medium.) to which IBA serving as a plant hormone of 10 mg/L was added was sprayed from the above the seedling pot by use of a watering can so that the supporter was soaked with the four-diluted MS medium.
Tea plant was used as a material for a cutting. Specifically, a cutting grown to have a length of about 5 cm to 20 cm, about one to three joints, about one to six leaves was cut out from a mother tree, and a tip of each leaf was cut off. In this way, the cutting was adjusted and prepared.
A base of the cutting thus adjusted and prepared was planted to a supporter (66 cuttings were planted per seedling pot). After this planting, the shoot was cultured for one and half months in a carbon dioxide gas concentration of 1000 ppm, a temperature of 25° C., and a humidity of 60% having a wavelength component of 650 nm to 670 nm to a wavelength component of 450 nm to 470 nm at a ratio of 8.2:1.8 under irradiation of red light having photosynthesis photon flux density of 51.3 μmol/m^2/S. After that, the seedling pot was moved to a green house, and was bred for two and half months. In the green house, a high humidity (80% or more) was kept by frequently spraying mist. After two and half month from this moving, a rooting rate was calculated from the number of rooted cuttings.
The culture was carried out in the same way as Example 12, except that an amount of 1% granule oxidized glutathione to be added to a composite soil (5.5 L) was set to 75 g.

[2] = Example 9: 500 mg/L, sprayed to phylloplane
[3] = Example 10: 1000 mg/L, sprayed to phylloplane

oxidized glutathione
Rooting rate (%) (E. uro-grandis B; Example 8: 200 mg/L, sprayed to phylloplane (about 1.1 ml per shoot), three weeks): 54.5%
Number of rooted shoots (E. uro-grandis B; Example 8: 200 mg/L, sprayed to phylloplane): 48
Rooting rate (%) (E. uro-grandis B; [2]): 59.1%
Number of rooted shoots (E. uro-grandis B; [2]): 52
Rooting rate (%) (E. uro-grandis B; [3]): 60.2%
Number of rooted shoots (E. uro-grandis B; [3]): 53
Number of rooted shoots ([1]; Example 11: 50 mg/L in rooting medium, of 26 test pieces): 7
Rooting rate (%) ([1]; Example 11: 50 mg/L, adding glutathione to rooting medium (with STS, ascorbic acid, IBA 10 mg/L), 26 test pieces): 26.9%
Rooting rate (%) (Tea plant; Example 12: 3 mg/L in composite soil (15 g of 1% granule per 5.5 L)): 96.0%
Number of rooted shoots (Tea plant; Example 12: 3 mg/L in composite soil): 443
Rooting rate (%) (Tea plant; Example 13: 15 mg/L in composite soil (75 g of 1% granule per 5.5 L)): 99.6%
Number of rooted shoots (Tea plant; Example 13: 15 mg/L in composite soil): 461
